# Assays:
# [1] = test system: CYCB1;1:Dbox-GUS reporter line; test: CYCB1;1:DBox-GUS staining of mitotic activity in leaf 3; format: in vivo, Arabidopsis thaliana; details: 48 h after transfer to 25 mM mannitol or 5 μM ACC
# Protocol: Arabidopsis seedlings were germinated and grown on nylon meshes overlaying control medium until 9 days after stratification (DAS), when the third true leaf is fully proliferating (Skirycz et al., 2010), and subsequently transferred to control or mannitol-containing medium (FIGS. 1A to 10). Kinematic analysis was performed, whereby leaves were harvested daily throughout development of leaf 3 (9-20 DAS) and based on drawings of the abaxial epidermis cell number, cell area, number of guard cells and cell division and cell expansion rates were calculated (De Veylder et al., 2001). […] Leaf and plant morphology were not altered by mannitol (FIG. 2C). Cell expansion was also affected by stress and the reduced final leaf area was a combination of fewer and smaller cells (FIG. 2D). The stomatal index, which represents the number of stomata as a fraction of the total number of cells, was reduced as well (FIG. 2E). To learn more about the mechanisms underlying the rapid reduction of cell division upon stress onset, we harvested leaf samples daily after transfer. As a measure of cellular differentiation, the ploidy distribution was examined by flow cytometry. […] In stressed leaves, 4C nuclei started to accumulate approximately one day earlier than in controls at the expense of 2C nuclei (FIG. 3A). […]
# [2] = test system: proliferating leaf primordia transcriptome; test: ATH1 whole-genome transcript profiling of proliferating leaf primordia; format: in vivo, Arabidopsis thaliana
# Excerpt: To obtain a better understanding of the molecular mechanisms inhibiting cell division during stress, we subjected proliferating leaf primordia to whole-genome transcript profiling. […] Selected microarray data could be validated with a nCounter platform containing probes for 100 genes involved in growth, stress, and hormonal regulation. Differential transcripts were used to construct Venn diagrams and were subjected to k-means clustering. […] Subsequently, the differential transcripts were examined with PageMan to calculate the functional overrepresentation of MapMan categories (Thimm et al., 2004; Usadel et al., 2006) and were compared to selected publicly available microarray experiments (see “Materials and Methods”). To explain the reduced cell proliferation rates, cell cycle genes were among the prime suspects. […] Strikingly, the magnitude of change for all of the above-mentioned cell cycle genes was similar (approximately 30%) and occurred only at 24 h (FIG. 6A). Besides the cell cycle-related transcripts, we were particularly interested in genes related to hormonal signaling.
# Leaf 3 was harvested from plants at 1.5, 3, 12, and 24 h. Briefly, whole seedlings were harvested in an excess of RNAlater solution (Ambion) and, after overnight storage at 4° C., dissected under a binocular microscope on a cooling plate with precision microscissors. Dissected leaves were transferred to a new tube, frozen in liquid nitrogen, and ground with a Retsch machine and 3-mm metal balls. Samples were obtained from three independent biological experiments and from multiple plates within the experiment.
# RNA was extracted with TriZol (Invitrogen) according to the manufacturer's instructions with 4 μg of glycogen as carrier during the precipitation step. RNA samples were subjected to DNA digestion with RNase-free DNase I (Roche) and subsequently cleaned up with the RNeasy Mini Kit (Qiagen).
# RNA samples were hybridized to single Affymetrix ATH1 Genome arrays at the VIB Microarray Facility (Leuven, Belgium). Expression data were processed with Robust Multichip Average (RMA) (background correction, normalization, and summarization) as implemented in BioConductor (Irizarry et al., 2003a, 2003b; Gentleman et al., 2004). An alternative cdf (“tinesath1cdf”) was used, in which each probe is uniquely assigned to one transcript (Casneuf et al., 2007) (http://www.bioconductor.org/packages/release/data/experiment/html/tinesath1cdf.html). The BioConductor package Limma was used to identify differentially expressed genes (Smyth, 2004). For comparisons of interest, moderated t statistics were calculated using the eBayes function and P values were corrected for multiple testing for each contrast separately using topTable. False-discovery rate (FDR)-corrected p-value<0.05 was used as a cut-off (Benjamini and Hochberg, 1995).
# [3] = 1.5 h after transfer to 25 mM mannitol
# [4] = 3 h after transfer to 25 mM mannitol
# [5] = 12 h after transfer to 25 mM mannitol
# [6] = 24 h after transfer to 25 mM mannitol
compound,measurement,setting,value
OC[C@@H](O)[C@@H](O)[C@H](O)[C@H](O)CO [mannitol],number of mitotic cells (CYCB1;1:DBox-GUS activity),[1],reduced number of mitotic cells
same,number of down-regulated transcripts,[2]; [3],31
same,number of up-regulated transcripts,[2]; [3],27
same,number of down-regulated transcripts,[2]; [4],145
same,number of up-regulated transcripts,[2]; [4],189
same,number of down-regulated transcripts,[2]; [5],84
same,number of up-regulated transcripts,[2]; [5],351
same,magnitude of change (down-regulation) of cell cycle genes,[2]; 24 h after stress onset,approximately 30%
same,number of down-regulated transcripts,[2]; [6],622
same,number of up-regulated transcripts,[2]; [6],886
